Experimental data reported in patent US20260176249A1, “PROTEIN KINASE INHIBITOR, PREPARATION METHOD THEREFOR, AND APPLICATION THEREOF” (SHANDONG LUYE PHARMACEUTICAL CO., LTD., priority 2021, published 2026).
Read-outs that look alike come from different tables or passages of the source. Blank lines part the entries; values can stand above or below the compound they belong to.

What was measured:
[1] = Metabolic stability in rat liver microsomes; type: in vitro ADME; conditions: for CLint scaled at 1 µM / half-life at 1 µM / microsomal CLint at 1 µM: rat; for CLint scaled at 1 µM / half-life at 1 µM: pH 7.4; for microsomal CLint at 1 µM: pH 7.4, read-out: CLint(mic)
Description: (§1) a. Preparation of phosphate buffer: The phosphate buffer powder was dissolved in 100 mL of pure water to prepare a phosphate buffer solution with a pH of 7.4 and a concentration of 100 mM, which was stored in a 4° C. refrigerator for later use.
(§2) b. All samples as well as the reference testosterone were dissolved in DMSO to obtain a 10 mM stock solution. The 10 mM stock solution was diluted to 100 μM with acetonitrile to obtain a working solution for later use.
(§3) c. Preparation of liver microsome working solution: Each of the mouse, rat and human liver microsome stock solutions (at concentration of 20 mg/mL) was taken and diluted to 0.56 mg/mL with 100 mM phosphate buffer solution to obtain the liver microsome working solution.
(§4) d. Preparation of solution: An appropriate amount of MgCl2 was weighed and used to prepare a MgCl2 solution at a concentration of 60 mM using 100 mM phosphate buffer solution. An appropriate amount of NADPH was weighed and used to prepare a NADPH solution at a concentration of 20 mM using 100 mM phosphate buffer solution. An equal volume of 60 mM MgCl2 solution was added to prepare an NADPH working solution containing 10 mM NADPH and 30 mM MgCl2. An acetonitrile solution containing 20 ng/mL tolbutamide was prepared as the stop solution.
(§5) e. Liver microsome incubation: 2 μL of each compound and the positive drug testosterone working solution were added to 178 μL of liver microsome working solution (0.56 mg/mL), mixed gently, and pre-incubated in a vibrating constant temperature water bath pot at 37° C. for 10 min. After adding 20 μL of NADPH working solution, the mixture was placed in a vibrating constant temperature water bath pot at 37° C. and timed incubation was started for 5, 10, 20, 30 and 60 min.
(§6) f. Stopping reaction: After the corresponding time of incubation, 400 μL of stop solution was added to stop the reaction, and then the sample was immediately shaken for 1 min. The sample was centrifuged at 13500 rpm for 10 min at 10° C. After centrifugation, the supernatant was removed, diluted with water according to the needs of each compound, and analyzed by LC-MS. For the 0-minute sample, the stop solution was first added and mixed evenly with the liver microsomes, and then the NADPH working solution was added. For the negative control sample, 20 μL of 30 mM MgCl2 solution was added instead of the NADPH working solution.
(§7) T1/2 and CLint(mic) were calculated by the following formula.
(§8) [formula] [formula] • CLint(mic)=0.693/T1/2/liver microsomal protein concentration during incubation (mg/mL) • CLint(ver)=CLint(mic)*liver microsomal protein (mg)/liver weight (g)*liver weight to body weight ratio
(§9) Liver microsomal protein (mg)/liver weight (g): the value is 45 in both animal and human species.
(§10) Liver weight to body weight ratio: the parameters for mice, rats and humans are 88, 40 and 20 g/kg respectively.

[2] = Metabolic stability in mouse liver microsomes; type: in vitro ADME; conditions: for CLint scaled at 1 µM / half-life at 1 µM / microsomal CLint at 1 µM: mouse; for CLint scaled at 1 µM / half-life at 1 µM: pH 7.4; for microsomal CLint at 1 µM: pH 7.4, read-out: CLint(mic)
Description: as §1, §2, §3, §4, §5, §6, §7, §8, §9, §10

[3] = molecular target: T1, PLK1 kinase (Homo sapiens, UniProt P53350); experiment: Inhibitory activity on PLK1 kinase; type: biochemical; conditions: for Imax: maximum effect caused by the compound at the test concentration
T1 construct: purchased Carnabio (Carna Biosciences) 05-157
T1 sequence (P53350 whole entry): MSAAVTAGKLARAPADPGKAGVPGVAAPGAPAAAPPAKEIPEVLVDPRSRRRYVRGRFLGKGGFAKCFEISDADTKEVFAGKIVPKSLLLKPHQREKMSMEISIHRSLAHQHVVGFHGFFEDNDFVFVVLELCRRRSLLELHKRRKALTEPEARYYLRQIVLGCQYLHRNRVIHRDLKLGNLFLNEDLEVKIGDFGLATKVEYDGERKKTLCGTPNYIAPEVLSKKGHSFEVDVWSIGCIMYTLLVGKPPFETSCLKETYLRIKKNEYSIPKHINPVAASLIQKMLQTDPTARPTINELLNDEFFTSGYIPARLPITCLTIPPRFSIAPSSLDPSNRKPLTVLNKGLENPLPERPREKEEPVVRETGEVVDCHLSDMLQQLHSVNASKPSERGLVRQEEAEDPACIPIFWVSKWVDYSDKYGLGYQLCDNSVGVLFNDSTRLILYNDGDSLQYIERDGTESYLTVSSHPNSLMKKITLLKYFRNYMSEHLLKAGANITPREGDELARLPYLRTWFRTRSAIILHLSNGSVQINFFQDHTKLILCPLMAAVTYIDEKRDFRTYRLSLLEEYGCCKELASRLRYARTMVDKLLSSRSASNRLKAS
Description: Detection solution PerkinElmer #TRF0218-M
Detection instrument PerkinElemer EnVision
a. Using the Echo machine, the compounds to be tested were diluted by 1:3 on a 384-well plate, and the highest concentration was 1 μM, with a total of 10 concentration points, and each concentration was tested in duplicate wells.
b. 5 μL/well of PLK1 kinase and peptide substrate mixture were added to the assay plate (containing controls).
d. The reaction was initiated by adding 5 μL/well of ATP solution;
e. The assay plate was centrifuged at 1000 rpm for about 15 seconds, a film was used to seal the assay plate which was incubated at 23° C. for a period of time;
f. A detection solution was added to all wells of the assay plate;
g. The assay plate was centrifuged at 1000 rpm for approximately 15 seconds, a film was used to seal the assay plate which was incubated at 23° C. for 60 min.
h. The assay plate was read on EnVision. The test results were analyzed using XLFIT5 software.

[4] = Metabolic stability in human liver microsomes; type: in vitro ADME; conditions: for CLint scaled at 1 µM / half-life at 1 µM / microsomal CLint at 1 µM: human; for CLint scaled at 1 µM / half-life at 1 µM: pH 7.4; for microsomal CLint at 1 µM: pH 7.4, read-out: CLint(mic)
Description: as §1, §2, §3, §4, §5, §6, §7, §8, §9, §10

[5] = system: HCT116 cells; experiment: Inhibitory activity on HCT116 cell proliferation (ATPlite); type: cell-based; conditions: Homo sapiens
Description: Cell culture medium: RPMI1640+10% FBS (GBICO)
Cell culture plate: 96-well plate (Shanghai Jingan Biotechnology Co., Ltd.)
Detection kit: ATPlite 1step Luminescence (PerkinElmer)
Detection instrument: BioTek multifunctional microplate reader
2. Test method: HCT116 cells in the logarithmic growth phase were seeded into a white-wall clear-bottom 96-well plate at a density of 720 cells per well, and cultured overnight in a 37° C., 5% CO2 incubator. […] After adding the drug, culturing was continued for 72 h in a 37° C., 5% CO2 incubator.
GraphPad Prism 7.0 was used to process the data, the cell inhibition rate curve was obtained and IC50 was calculated.

[6] = system: Caco-2 cells; experiment: Permeability and efflux transporter substrate evaluation in Caco-2 cells; type: in vitro ADME; set-up: Papp A→B at 120 min / Papp B→A at 120 min / efflux ratio at 120 min / Papp at 120 min: dose or concentration left out as unconfirmed; conditions: Caco-2
Description: (§11) The cells were cultured in a carbon dioxide incubator for 21-28 days before being used for transport experiments. During this period, the culture medium was changed every four to five days.
(§12) This project uses Hank's balanced salt buffer (pH 7.40±0.05) containing 10 mM HEPES as the transport buffer. The culture medium was removed from the culture plate and the cells were washed twice with preheated transport buffer (approximately 75 μL and 40 mL of transport buffer for each apical well and basolateral receiver plate respectively). The donor solution and receiver solution were added to the corresponding cell plate wells (75 and 250 μL for each apical and basolateral well respectively), and the bidirectional transport experiment was started (apical to basolateral (A-B) and basolateral to apical (B-A)). The test concentration of the test substance was […], and two replicate wells were made for each dosing concentration. The test concentration of Digoxin was […], with dosing bidirectionally; the test concentrations of nadolol and metoprolol were both […], and they were dosed in one direction (A-B direction), and two replicate wells were made for each of the three control compounds.
(§13) The initial donor solution is the TO sample. After adding the sample, it was mixed with the transport buffer and stop solution in a certain proportion.
(§14) All samples were vortexed, and then centrifuged at 3220×g for 20 min at 20° C. A proper volume of supernatant was transferred to a sample assay plate, and the sample was stored at 2-8° C. if it was not analyzed immediately after the plate was sealed, and LC MS/MS method was used for analysis.
(§15) The Lucifer Yellow Rejection Assay was used to test the integrity of the Caco-2 cell layer.
(§16) The following formulas were used to calculate the apparent permeability coefficient (Papp, cm/s), efflux ratio (ER), and solution recovery (%) (% Solution Recovery).
(§17) [formula] [formula] [formula] • VR is the volume of the receiver side solution (side A is 0.075 mL, side B is 0.25 mL); Area is the relative surface area of the cell monolayer (0.0804 cm^2); Time is the incubation time (7200 s); C0 is the initial concentration (nM) of the test substance at the donor side or the peak area ratio of the control compound; VD is the volume of the donor side (side A is 0.075 mL, side B is 0.25 mL); CD and CR are the final concentration (nM) of the test substance at the donor side and the receiver side respectively or the peak area ratio of the control compound; • Lucifer yellow transmittance rate (% Lucifer Yellow) is calculated using the following formula:
(§18) [formula] • RFUApical and RFUBasolateral are the relative fluorescence intensity of lucifer yellow at the apical and basolateral sides respectively. VApical and VBasolateral are the sample loading volumes at the apical and basolateral sides respectively (0.075 and 0.25 mL respectively).

[7] = as above; type: in vitro ADME; set-up: Papp A→B at 120 min / Papp B→A at 120 min / efflux ratio at 120 min / Papp at 120 min: dose or concentration left out as unconfirmed; conditions: human
Description: as §11, §12, §13, §14, §15, §16, §17, §18

[8] = PLK1 kinase, highest concentration 1 μM, 10 points, read-out: IC50

SMILES: CCn1nc(C(N)=O)c2ccc3cnc(Nc4cc(N5CCN(C)CC5)ccc4OC(F)(F)F)nc3c21 [Compound 29]
IC50 ([5]; HCT-116, 72 h): 77 nM

SMILES: CN1CCN(c2ccc(OC(F)(F)F)c(Nc3ncc4ccc5c(C(N)=O)nn(CC(F)(F)F)c5c4n3)c2)CC1 [Compound 28]
IC50 [3]: 0.67 nM
Imax [3]: 100.08%

SMILES: CN1CCN(c2ccc(OC(F)(F)F)c(Nc3ncc4ccc5c(C(=O)NOCCO)nn(CCO)c5c4n3)c2)CC1 [Compound 31]
IC50 [3]: 1.55 nM
Imax [3]: 99.54%

SMILES: CN1CCN(c2ccc(OC(F)(F)F)c(Nc3ncc4ccc5c(C(=O)NO)nn(CC(F)(F)F)c5c4n3)c2)CC1 [Compound 32]
IC50 [3]: 0.463 nM
Imax [3]: 99.87%

The remaining lines, values ahead:

60 min remaining amount [1]: 1.93%
Clearance rate [1]: High
CLint scaled at 1 µM [1]: 410 mL/min/kg
half-life at 1 µM [1]: 6.08 min
microsomal CLint at 1 µM [1]: 228 µL/min/mg
60 min remaining amount [2]: 2.46%
Clearance rate [2]: High
CLint scaled at 1 µM [2]: 470 mL/min/kg
half-life at 1 µM [2]: 11.7 min
microsomal CLint at 1 µM [2]: 119 µL/min/mg
IC50 [3, 8]: 0.814 nM
Imax [3]: 99.97%
60 min remaining amount [4]: 26.0%
Clearance rate [4]: Medium
CLint scaled at 1 µM [4]: 41.8 mL/min/kg
half-life at 1 µM [4]: 29.9 min
microsomal CLint at 1 µM [4]: 46.4 µL/min/mg
SMILES: CN1CCN(c2ccc(OC(F)(F)F)c(Nc3ncc4c(n3)-c3c(c(C(=O)NO)nn3CCF)CC4)c2)CC1 [Compound 17]

IC50 ([5]; HCT-116, HCT116 cells, 72 h, read-out: IC50): 2720 nM
SMILES: CN1CCN(c2ccc(OC(F)(F)F)c(Nc3ncc4ncc5c(C(N)=O)nn(CCO)c5c4n3)c2)CC1 [Compound 6]

IC50 [3, 8]: 1.51 nM
Imax [3]: 99.99%
SMILES: CN1CCN(c2ccc(OC(F)(F)F)c(Nc3ncc4ccc5c(C(N)=O)cn(C)c5c4n3)c2)CC1 [Compound 22]

60 min remaining amount [1]: 2.06%
Clearance rate [1]: High
CLint scaled at 1 µM [1]: 1090 mL/min/kg
half-life at 1 µM [1]: 2.3 min
microsomal CLint at 1 µM [1]: 603 µL/min/mg
60 min remaining amount [2]: 2.92%
Clearance rate [2]: High
CLint scaled at 1 µM [2]: 940 mL/min/kg
half-life at 1 µM [2]: 5.84 min
microsomal CLint at 1 µM [2]: 237 µL/min/mg
Classification Efflux transporter substrate [6]: Very unlikely or not (ERa < 2.00)
efflux ratio at 120 min ([7]; Caco-2, pH 7.4): 1.97
Papp at 120 min ([7]; Caco-2, pH 7.4, read-out: Classification Permeability): < 0.5 ×10⁻⁶ cm/s
Papp A→B at 120 min ([7]; pH 7.4, Caco-2, apical to basolateral, 120 min, pH 7.40): 0.275 ×10⁻⁶ cm/s
Papp B→A at 120 min ([7]; pH 7.4, Caco-2, basolateral to apical, 120 min, pH 7.40): 0.542 ×10⁻⁶ cm/s
IC50 [3, 8]: 0.79 nM
Imax [3]: 100.68%
60 min remaining amount [4]: 14.1%
Clearance rate [4]: High
CLint scaled at 1 µM [4]: 60.7 mL/min/kg
half-life at 1 µM [4]: 20.6 min
microsomal CLint at 1 µM [4]: 67.4 µL/min/mg
SMILES: CCc1sc(C(N)=O)c2c1-c1nc(Nc3cc(N4CCN(C)CC4)ccc3OC(F)(F)F)ncc1CC2 [Compound 7]
